Measured values from patent US20070037752A1, “Novel alanyl-amino peptidase inhibitors for functionally influencing different cells and treating immunological, inflammatory, neuronal, and other diseases” (priority 2003, published 2007).

target: alanyl aminopeptidases (APN) (Homo sapiens, UniProt P15144); experiment: Inhibition of alanyl aminopeptidase enzymatic activity, fluorogenic substrate (Ala)2-rhodamine 110; assay type: biochemical; details: Table 9, starred values = ID50; read-out: ID50 APN (values marked with *)
Sequence (P15144 whole entry, species assumed): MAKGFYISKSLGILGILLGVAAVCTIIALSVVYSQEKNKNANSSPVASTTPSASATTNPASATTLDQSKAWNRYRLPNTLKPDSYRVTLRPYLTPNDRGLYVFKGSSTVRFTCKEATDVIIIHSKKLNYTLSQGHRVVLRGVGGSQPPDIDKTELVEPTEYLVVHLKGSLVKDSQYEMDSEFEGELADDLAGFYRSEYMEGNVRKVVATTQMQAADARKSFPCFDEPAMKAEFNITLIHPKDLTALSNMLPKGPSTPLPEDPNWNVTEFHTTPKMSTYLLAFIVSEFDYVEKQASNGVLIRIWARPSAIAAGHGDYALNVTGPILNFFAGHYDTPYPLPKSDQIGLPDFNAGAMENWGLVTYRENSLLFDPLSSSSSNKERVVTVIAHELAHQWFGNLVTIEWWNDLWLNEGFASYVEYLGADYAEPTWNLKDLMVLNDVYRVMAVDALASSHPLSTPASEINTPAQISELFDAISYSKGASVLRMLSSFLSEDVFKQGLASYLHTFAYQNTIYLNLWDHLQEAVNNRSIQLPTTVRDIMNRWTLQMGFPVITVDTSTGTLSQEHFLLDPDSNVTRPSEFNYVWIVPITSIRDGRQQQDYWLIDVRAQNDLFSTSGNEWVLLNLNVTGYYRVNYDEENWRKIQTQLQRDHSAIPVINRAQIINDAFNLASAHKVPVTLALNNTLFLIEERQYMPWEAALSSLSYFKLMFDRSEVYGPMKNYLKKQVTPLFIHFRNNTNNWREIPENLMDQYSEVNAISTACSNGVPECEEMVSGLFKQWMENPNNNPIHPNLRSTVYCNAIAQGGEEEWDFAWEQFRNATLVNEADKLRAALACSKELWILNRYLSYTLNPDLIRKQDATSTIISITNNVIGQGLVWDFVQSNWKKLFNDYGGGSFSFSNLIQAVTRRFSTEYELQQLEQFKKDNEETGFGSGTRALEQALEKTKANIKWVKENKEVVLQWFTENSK
Procedure: The inhibition characteristics measured are referred to as IC-50 values or ID50 values (the latter marked with “*”) for said enzyme. The enzymatic activity was determined by means of the fluorogenic substrate/product (Ala)2-rhodamine 110.

IC50 [µM] | SMILES
80.4 | CCc1ccc(NC(=O)C2CCN(S(=O)(=O)c3ccc(Cl)cc3)CC2)cc1 [A9.114]
94.8 | O=C(OCCN1CCCCC1)C1c2ccccc2Oc2ccccc21 [A9.117]
103 | C#CCN1C(c2cnccn2)=NC(CC(C)C)C1C(=O)Nc1c(C)cccc1C (stereo not drawn) [A9.119]
117 | COc1c(OCC(O)C(C)(C)O)ccc2c1N=C1OC=CC1C2OC (stereo not drawn) [A9.120]
134 | CC(=O)Oc1ccc2c(=O)c(-c3cnn(-c4ccccc4)c3)c(C(F)(F)F)oc2c1OC(C)=O [A9.122]
186 | CCCOC(=O)C(NC(=O)c1ccccc1)(N1CCOCC1)C(F)(F)F (stereo not drawn) [A9.125]
197 | CC(C)Oc1ccc(/C=N/CCC2(c3ccccc3)CCOC(C)(C)C2)cc1 (stereo not drawn) [A9.126]
208 | O=C(/C=C/c1ccco1)NCCCN1CCOCC1 [A9.127]
252 | CC(C)N1CCN(Cc2ccccc2[N+](=O)[O-])CC1 [A9.128]

SMILES | IC50 [µM]
Cc1cccc[n+]1OC(=O)N1CCCCC1 [A9.118] | 96.7

same assay, conditions: Table 9, unstarred values; read-out: IC50APN

IC50 [µM] | SMILES
90.2 | CCCOC(=O)C(NC(=O)c1ccc(OC)cc1)(N1CCOCC1)C(F)(F)F (stereo not drawn) [A9.115]
93.6 | CC1(C)CC(CC/N=C/c2ccccc2)(Cc2ccccc2)CCO1 (stereo not drawn) [A9.116]
125 | CC1=C(C#N)C(=O)N(CCO)C(=O)/C1=C\c1ccc(-c2ccc(C)c(Cl)c2)o1 [A9.121]
138 | NCCCNC(=O)C1Cc2ncn(Cc3ccccc3[N+](=O)[O-])c2CN1Cc1ccccn1 (stereo not drawn) [A9.123]

same assay, conditions: Table 10; read-out: IC50APN

SMILES | IC50 [µM]
Brc1cc2c(cc1Br)OCCOCCOCCOCCOCCO2 [A10.001] | 0.7
O=C(N/N=C\c1ccco1)c1ccc(S(=O)(=O)N2CCCCCC2)cc1 [A10.002] | 8
C/C(=N/O)c1ccc2c(c1)OCCOCCOc1cc(/C(C)=N\O)ccc1OCCOCCO2 [A10.004] | 8.6
CC1CC(=O)N(C(=O)CCBr)c2ccc([N+](=O)[O-])cc2N1C(=O)CCBr (stereo not drawn) [A10.008] | 99.8

Now from value to compound:

IC50 [µM] | SMILES
8.1 | COc1ccc(Cl)cc1C(=O)N/C(=C/c1ccco1)C(=O)N1CC2CC(C1)c1cccc(=O)n1C2 (stereo not drawn) [A10.003]
11 | Cc1ccc(C(=O)N/C(=C\c2ccco2)C(=O)N2CC3CC(C2)c2cccc(=O)n2C3)cc1 (stereo not drawn) [A10.005]
11.8 | Cc1ccc(C(=O)N/C(=C\c2ccco2)C(=O)N2CC3CC(C2)c2cccc(=O)n2C3)cc1C (stereo not drawn) [A10.006]
32.1 | Cc1ccc(C(=O)N/C(=C\c2ccco2)C(=O)N2CCCN(C)CC2)cc1C [A10.007]

same assay, conditions: Table 11; read-out: IC50APN

SMILES | IC50 [µM]
N/C(=N\[N+](=O)[O-])N/N=C/c1ccco1 [A11.001] | 7.6
N#Cc1cc(N2CC3CC(C2)c2cccc(=O)n2C3)c([N+](=O)[O-])cc1C#N (stereo not drawn) [A11.004] | 8.9
O=C(N/N=C(/CC(=O)c1cccs1)C(F)(F)F)c1cccc([N+](=O)[O-])c1 [A11.005] | 10.7
CC(NC(=O)C(=O)N/N=C\c1cc([N+](=O)[O-])ccc1O)c1ccccc1 (stereo not drawn) [A11.007] | 11.4
CN(C)CCCN1CCN(c2nc(N(C)CC(=O)O)c3ncn(Cc4ccc([N+](=O)[O-])cc4)c3n2)CC1 [A11.008] | 11.8
CCN(CC)C(=O)c1cc([N+](=O)[O-])ccc1C(=O)O [A11.009] | 12.1
CC(C)C/C=N/NC(=O)c1ccc([N+](=O)[O-])cc1Cl [A11.010] | 15.6
O=[N+](O)CC(c1ccccc1)P(=O)(c1ccccc1)c1ccccc1 (stereo not drawn) [A11.011] | 16.3
O=C(Cc1ccc([N+](=O)[O-])cc1)N1CCOCC1 [A11.012] | 19.1
O=C(N/N=C/c1cc([N+](=O)[O-])ccc1O)c1ccc(O)cc1O [A11.013] | 20.2
O=C1c2cccc3c(Br)c([N+](=O)[O-])cc(c23)C(=O)N1c1cccc([N+](=O)[O-])c1 [A11.016] | 23.3
O=C1CNC(c2cccc([N+](=O)[O-])c2)N1O (stereo not drawn) [A11.018] | 26.4
CCCCCCCSc1nnc2c(n1)CC(C(=O)c1ccccc1)=Nc1ccccc1-2 [A11.019] | 28.9
O=c1[nH]cc([N+](=O)[O-])cc1C(F)(F)F [A11.021] | 29.9
O=C(CC1(O)CCCCC1)N/N=C/c1ccccc1[N+](=O)[O-] [A11.023] | 31.1
CC(=O)N1CCOC1(C)c1ccc([N+](=O)[O-])cc1 (stereo not drawn) [A11.024] | 32.8
NCCCCCC(=O)C[N+](=O)[O-] [A11.025] | 33.2
O=[N+]([O-])c1ncn(CN2CCOCC2)n1 [A11.026] | 36.8
O=C(Nc1ccc(F)cc1)c1ccc([NH+]([O-])O)o1 (stereo not drawn) [A11.027] | 37.4
O=C(OCC1CCCO1)c1cc([N+](=O)[O-])cc([N+](=O)[O-])c1 (stereo not drawn) [A11.028] | 39.3
O=C(N/N=C/c1cccc([N+](=O)[O-])c1)c1ccco1 [A11.029] | 45.4
O=C(C[N+](=O)[O-])c1cc2occc2[nH]1 [A11.030] | 49.5
CC1CC(=O)N(C(=O)CCBr)c2ccc([N+](=O)[O-])cc2N1C(=O)CCBr (stereo not drawn) [A11.033] | 99.8
O=C(Nc1ccccc1F)c1ccc([N+](=O)[O-])o1 [A11.034] | 62.4
COC(=O)c1cc(C(=O)NC2CCSC2=O)cc([N+](=O)[O-])c1 (stereo not drawn) [A11.036] | 238
O=C(N/C(=C\c1cccc([N+](=O)[O-])c1)C(=O)N(CCO)CCO)c1ccco1 [A11.037] | 244
C/C(=N\NC(=O)COc1ccc(C)cc1[NH+]([O-])O)c1ccco1 (stereo not drawn) [A11.038] | 422
O=C(N/N=C/c1cc(Cl)cc([N+](=O)[O-])c1O)c1ccccc1O [A11.039] | 5.8

More lines, now with the values ahead:

IC50 [µM] | SMILES
7.6 | CCN(CC)c1ccc(/C=C(\NC(=O)c2ccccc2)C(=O)N/N=C/c2ccc(O)c([N+](=O)[O-])c2)cc1 [A11.002]
7 | O=C(Cc1ccc(Br)c2ccccc12)N/N=C/c1ccc([N+](=O)[O-])c(O)c1 [A11.003]
10.8 | Cc1ccc(C)c(NC(=O)C(=O)N/N=C/c2cc([N+](=O)[O-])ccc2O)c1 [A11.006]
20.3 | CC(=O)Oc1ccc([N+](=O)[O-])cc1/C=N/NC(=O)COc1cc(C)ccc1C(C)C [A11.014]
20.8 | O=C1C=CC(=O)N1c1cc([N+](=O)[O-])ccc1F [A11.015]
23.6 | O=C(Nc1ccc(O)cc1C(=O)O)c1cccc(N2C(=O)c3cccc4c([N+](=O)[O-])ccc(c34)C2=O)c1 [A11.017]
29.3 | C=CCN1C(=O)C(C#N)=C(C)/C(=C\c2ccc(-c3cc(C)c(C)cc3[N+](=O)[O-])o2)C1=O [A11.020]
30 | CCOC(=O)C(C#N)c1c([N+](=O)[O-])c(=O)n(-c2ccccc2)c2ccccc12 (stereo not drawn) [A11.022]
54.2 | O=C(N/N=C/c1cc(Br)ccc1OC(=O)c1ccc([N+](=O)[O-])cc1)/C(=C\c1ccc2c(c1)OCO2)NC(=O)c1ccccc1 [A11.031]
60 | O=C(CNC(=O)c1ccccc1F)N/N=C/c1ccc([N+](=O)[O-])o1 [A11.032]
222 | COc1cccc(C(=O)NCC(=O)N/N=C/c2ccc([N+](=O)[O-])o2)c1 [A11.035]

same assay, conditions: Table 12; read-out: IC50APN

IC50 [µM] | SMILES
0.7 | Brc1cc2c(cc1Br)OCCOCCOCCOCCOCCO2 [A12.002]
2.7 | CCOC(=O)c1ccc(-c2ccc(/C=C3\C(=O)N(CCO)C(=O)C(C#N)=C3C)o2)cc1 [A12.004]
5 | COC(=O)c1ccc(-c2ccc(/C=C3\C(=O)N(CCCO)C(=O)C(C#N)=C3C)o2)cc1 [A12.005]
5.6 | Cc1cc(Cl)ccc1OCCCC(=O)NO [A12.006]
6.3 | COC(=O)c1cccc(-c2ccc(/C=C3\C(=O)N(CCO)C(=O)C(C#N)=C3C)o2)c1 [A12.007]
